Here are results for 20 compounds from patent US12152034B2, “FGFR inhibitors and methods of making and using the same” (Relay Therapeutics, Inc., priority 2020, dated 2024).

Several values for one entry are separate records, joined by “and”; a condition that tells them apart may be missing. Identical values can stand only once. Entries after “also recorded” stand apart in the source; their conditions may differ. Like-named read-outs stand apart in the source and are kept apart here. A value given as a limit tells only on which side of the number the result lay.

Holding throughout (assay type): physicochemical
Data set [1] in a line: Storage at 40° C./75% RH for 7 days (one week), form checked by XRPD. The settings on record: for Storage at 40° C./75% RH for one week (row head not given): Compound IV salts; for Storage at 40° C./75% RH for one week (row head not given) / Storage at 40° C./75% RH for 7 days: form by XRPD; for XRPD after storage at 40° C./75% RH for 7 days: one week (7 days); for Storage at 40° C./75% RH for 7 days: Compound III salts. How it is done:
The suspensions were then cooled down to 5° C. at 0.1° C./min and were held at this temperature for 16 hrs. Stirring (500 rpm) was maintained throughout. Any gums that formed were maturated between 25 and 50° C. (4 hours at each temperature for 24 hrs). The suspensions were isolated by filtration under suction and air dried then analysed by XRPD. Any new patterns identified by XRPD were analysed further by NMR, TGA, DSC and stability at 40 C/75% RH for 1 week.

Data set [2] in a line: Solubility measurements in SGF, FeSSIF and FaSSIF with XRPD of residual solids. As to conditions: for solubility in all media (in words): FeSSIF and FaSSIF; for solubility in FeSSIF (in words): simulated fed state intestinal fluid; for Average Solubility / XRPD of residual solid / pH at 24 hrs / Solubility: Compound III-1, HCl and sulfate salts; for Solubility: single replicate. An excerpt:
The results from the solubility measurements in simulated gastric fluid (SGF), simulated fed state conditions in the small intestines (FeSSIF), and simulated fasting state conditions in the small intestines fluid (FaSSIF) are summarised in Table 12. The salts show reduced solubility in SGF compared to the free form.
Crystalline FB Form A, HCl Form A, and the sufate salt Form A were scaled up for solubility analysis.
HCl Form A was successfully scaled up for solubility analysis.

Data set [3] can be described thus: Solubility assessment in solvents by aliquot addition (5-40 vol, 25° C., then heating). How it is done: Compound II-1 (40 mg) was treated with an aliquot of solvent (200 μl for 5 vol, 400 μl for 10 vol, 800 μl for 20 vol) and left to stir at 25° C. for 15 minutes. After 15 minutes, suspensions were treated with another aliquot of solvent and left to stir for the same duration again. Any solutions were removed from stirring and further solvent additions. This procedure was repeated up to 40 vol.
At 40 vol, any remaining suspensions were heated to 40° C. at a rate of 10° C./min. Samples that remained as suspensions at 40° C. were moved to the maturation chamber (RT/50° C.) for 4 days. All solutions from solvent additions were heated to 50° C. before cooling to 5° C. at a rate of 0.1° C./min, then held at 5° C. overnight. […]

The mark [4] stands for this setting: simulated fasting state intestinal fluid.

As for `C#Cc1cc(C)c(-c2c(-c3ccc(Oc4nccc(C)n4)c(F)c3)c3c(C)ncnc3n2C)c(C)n1.O=S(=O)(O)c1ccccc1` [BSA Form A], in data set [1], the “Storage at 40° C./75% RH for one week (row head not given)” value is “Change in form -”.
With `C=C(C)C(=O)Nc1ccc(-c2c(C3=CC[C@H](C(=O)N4CCCC4)CC3)c3c(N)ncnc3n2C)c(C)c1.Cl` [Compound II-2], in data set [1], the “XRPD after storage at 40° C./75% RH for 7 days” value was “no change”.
Still for that read-out and setting: as for `Br.C=C(C)C(=O)Nc1ccc(-c2c(C3=CC[C@H](C(=O)N4CCCC4)CC3)c3c(N)ncnc3n2C)c(C)c1` [Compound II-3], the entry is “convert to an amorphous form”.
`C=C(C)C(=O)Nc1ccc(-c2c(C3=CC[C@H](C(=O)N4CCCC4)CC3)c3c(N)ncnc3n2C)c(C)c1.Cc1ccc(S(=O)(=O)O)cc1` [Compound II-4]: the “XRPD after storage at 40° C./75% RH for 7 days” value was “XRPD unchanged” in data set [1] (listed as Compound II pTSA Form A), “conversion to pTSA Form A; also recorded: Converted to pTSA” in data set [1] (listed as Compound II pTSA Form B), “conversion to pTSA Form A; also recorded: Converted to pTSA” in data set [1] (listed as Compound II pTSA Form C) and “no change” in data set [1] (listed as Compound II-1 tosylate salt). Also, in data set [2], the “solubility in FaSSIF (in words)” value was “highest solubility”.
For `C=C(C)C(=O)Nc1ccc(-c2c(C3=CC[C@H](C(=O)N4CCCC4)CC3)c3c(N)ncnc3n2C)c(C)c1.O=S(=O)(O)c1ccccc1` [Compound II-6], in data set [1], the “XRPD after storage at 40° C./75% RH for 7 days” value is recorded as “no change”. In addition, in data set [2] (SGF), the “solubility in all media (in words)” value is listed as “low solubility”.
Take `C=C(C)C(=O)Nc1ccc(-c2c(C3=CC[C@H](C(=O)N4CCCC4)CC3)c3c(N)ncnc3n2C)c(C)c1.O=C(O)/C=C/C(=O)O` [Compound II-7]: the “XRPD after storage at 40° C./75% RH for 7 days” value in data set [1] is recorded as “no change”.
Consider `C#Cc1cc(OC)c(-c2c(-c3ccc(Oc4nccc(C)n4)c(F)c3)c3c(C)ncnc3n2C)cn1.Cl` [Compound III-2], for which the “XRPD after storage at 40° C./75% RH for 7 days” value in data set [1] (listed as Compound III HCl Form A) was “converting to HCl Form B”; in data set [1] (listed as Compound III HCl Form B), “large reduction in crystallinity”; in data set [1] (listed as Compound III HCl Form D), “no change in form”; in data set [1] (listed as Compound III HCl Patterns 3 and 5), “no change in form”; in data set [1] (listed as Compound III-1 chloride salt), “change form”. For the same compound, the “XRPD of residual solids after solubility measurement” value (shortened to “XRPD of residual solids”) in data set [2] (FaSSIF) is “new form”. Besides, the “solubility in FeSSIF (in words)” value in data set [2] is “lower solubility than the free form”.
Take `Br.C#Cc1cc(OC)c(-c2c(-c3ccc(Oc4nccc(C)n4)c(F)c3)c3c(C)ncnc3n2C)cn1` [Compound III-3]: the “XRPD after storage at 40° C./75% RH for 7 days” value in data set [1] is reported as “change form”.
For `C#Cc1cc(OC)c(-c2c(-c3ccc(Oc4nccc(C)n4)c(F)c3)c3c(C)ncnc3n2C)cn1.O=S(=O)(O)O` [Compound III-4], in data set [1] (listed as Compound III-1 sulfate salt), the “XRPD after storage at 40° C./75% RH for 7 days” value is reported as “small changes in the XRPD diffractogram”. Also, in data set [2] (FaSSIF), the “XRPD of residual solids” value is on record as “too poorly crystalline to assign”. Also, in data set [2] (setting [4]), the “solubility in FaSSIF (in words)” value is “slightly more soluble than the chloride salt”. For the same compound, the “solubility in FeSSIF (in words)” value in data set [2] was “slightly more soluble than the chloride salt”.
On to `C#Cc1cc(OC)c(-c2c(-c3ccc(Oc4nccc(C)n4)c(F)c3)c3c(C)ncnc3n2C)cn1.CS(=O)(=O)O` [Compound III-5], for which the “XRPD after storage at 40° C./75% RH for 7 days” value in data set [1] was “lose crystallinity”.
Regarding `C#Cc1cc(OC)c(-c2c(-c3ccc(Oc4nccc(C)n4)c(F)c3)c3c(C)ncnc3n2C)cn1.O=C(O)C(O)C(O)C(=O)O` [Compound III-6], the “XRPD after storage at 40° C./75% RH for 7 days” value in data set [1] is “No change in form”.
Consider `C#Cc1cc(C)c(-c2c(-c3ccc(Oc4nccc(C)n4)c(F)c3)c3c(C)ncnc3n2C)c(C)n1` [Compound IV-1, 6-(6-ethynyl-2,4-dimethylpyridin-3-yl)-5-(3-fluoro-4-((4-methylpyrimidin-2-yl)oxy)phenyl)-4,7-dimethyl-7H-pyrrolo[2,3-d]pyrimidine], for which the Observation after treatment entry in data set [3] (2-Propanol, after cooling from 50° C. to 5° C.) was “Clear solution”; in data set [3] (10% Water/IPA, after cooling from 50° C. to 5° C.) it was “Clear solution”; in data set [3] (10% Water/MeCN, after cooling from 50° C. to 5° C.), “Clear solution”; in data set [3] (Acetone, after cooling from 50° C. to 5° C.) it was “Clear solution”; in data set [3] (Ethanol, after cooling from 50° C. to 5° C.), “Clear solution”; in data set [3] (Ethyl acetate, after cooling from 50° C. to 5° C.), “Clear solution”. Further, the Observation after treatment entry in data set [3] (Isopropyl acetate, after cooling from 50° C. to 5° C.) is on record as “Clear solution”; in data set [3] (MEK, after cooling from 50° C. to 5° C.), “Clear solution”; in data set [3] (Methanol, after cooling from 50° C. to 5° C.), “Clear solution”; in data set [3] (TBME, 40 vol, after maturation (RT/50° C.) 4 days), “Suspension”; in data set [3] (THF, after cooling from 50° C. to 5° C.), “Clear solution”; in data set [3] (Water, 40 vol, after maturation (RT/50° C.) 4 days), “Suspension”. Also, in data set [3] (n-Heptane, 40 vol, after maturation (RT/50° C.) 4 days), the Observation after treatment entry was “Suspension”. The “solubility in the solvents tested (in words)” value in data set [3] (13 solvents, up to 40 vol) is on record as “soluble in all but three of the solvents tested”. Further, the “XRPD of residual solids” value in data set [2] (all media (SGF, FeSSIF, FaSSIF)) is “remained unchanged”. Further, the “solubility in FaSSIF (in words)” value in data set [2] (setting [4]) is reported as “lowest solubility”.
Take `C#Cc1cc(C)c(-c2c(-c3ccc(Oc4nccc(C)n4)c(F)c3)c3c(C)ncnc3n2C)c(C)n1.Cl` [Compound IV-2]: in data set [1], the “XRPD after storage at 40° C./75% RH for 7 days” value was “no change to form”. Besides, the “XRPD of residual solids” value in data set [2] (FaSSIF) and in data set [2] (FeSSIF) was “converted to free form Form A” each time. The “solubility in all media (in words)” value in data set [2] (SGF) was “more soluble than the tosylate salt”. For the same compound, in data set [2] (simulated gastric fluid), the “solubility in SGF (in words)” value is listed as “completely dissolved”.
For `C#Cc1cc(C)c(-c2c(-c3ccc(Oc4nccc(C)n4)c(F)c3)c3c(C)ncnc3n2C)c(C)n1.CS(=O)(=O)O` [Compound IV-4], the “XRPD after storage at 40° C./75% RH for 7 days” value in data set [1] is listed as “lose crystallinity”.
Take `C#Cc1cc(C)c(-c2c(-c3ccc(Oc4nccc(C)n4)c(F)c3)c3c(C)ncnc3n2C)c(C)n1.O=S(=O)(O)c1ccccc1` [Compound IV-5]: the “XRPD after storage at 40° C./75% RH for 7 days” value in data set [1] was “change form”.
Turning to `Br.C#Cc1cc(OC)c(-c2c(-c3ccc(Oc4nccc(C)n4)c(F)c3)c3c(C)ncnc3n2C)cn1` [HBr Form A], the “Storage at 40° C./75% RH for 7 days” value in data set [1] is on record as “Change in form -”.
For `C#Cc1cc(C)c(-c2c(-c3ccc(Oc4nccc(C)n4)c(F)c3)c3c(C)ncnc3n2C)c(C)n1.Cl` [HC1 Form A], the “Storage at 40° C./75% RH for one week (row head not given)” value in data set [1] is “Reduced crystallinity -”.
For the compound `C#Cc1cc(OC)c(-c2c(-c3ccc(Oc4nccc(C)n4)c(F)c3)c3c(C)ncnc3n2C)cn1.O=S(=O)(O)O` [SO4 Form A], in data set [2] (FaSSIF), the “Average Solubility” value turned out to be 1950 µg/mL; the “XRPD of residual solid” value is “Poorly crystalline”; the “pH at 24 hrs” value was 2.6 and 2.7; the Solubility (commonly how much of the substance goes into solution per volume) is 2000 µg/mL and 1900 µg/mL. In data set [2] (FeSSIF), the “Average Solubility” value was 230 µg/mL; the “XRPD of residual solid” value is “FB Form C”; the “pH at 24 hrs” value came to 4.4; the Solubility is 240 µg/mL and 220 µg/mL. In data set [2] (SGF), the “Average Solubility” value was more than 10500 µg/mL; the “pH at 24 hrs” value stood at 1.7; the Solubility is >10200 µg/mL and >10700 µg/mL.
Take `C#Cc1cc(OC)c(-c2c(-c3ccc(Oc4nccc(C)n4)c(F)c3)c3c(C)ncnc3n2C)cn1.O=C(O)C(O)C(O)C(=O)O` [TAR Form A]: the “Storage at 40° C./75% RH for 7 days” value in data set [1] is given as “No change”.
As to `C#Cc1cc(C)c(-c2c(-c3ccc(Oc4nccc(C)n4)c(F)c3)c3c(C)ncnc3n2C)c(C)n1.Cc1ccc(S(=O)(=O)O)cc1` [pTSA Form A], the “Storage at 40° C./75% RH for one week (row head not given)” value in data set [1] was “Change in form -”.
